# Values joined by “and” are separate entries in the source; they are usually repeats but may differ in a detail not shown here. Equal entries are not always repeated.
# Experiment: Effect of temperature on vasopressin formulations: HPLC vasopressin assay and impurities on storage (Example 8)
# Assay type: physicochemical
# Details: inverted
# Procedure: To analyze degradation products of vasopressin that can be present in an illustrative formulation of vasopressin, gradient HPLC was performed to separate vasopressin from related peptides and formulation components. TABLE 2 below depicts the results of the experiment detailing the chemical formula, relative retention time (RRT), molar mass, and structure of vasopressin and detected impurities.
# Vasopressin was detected in the eluent using UV absorbance. The concentration of vasopressin in the sample was determined by the external standard method, where the peak area of vasopressin in sample injections was compared to the peak area of vasopressin reference standards in a solution of known concentration. The concentrations of related peptide impurities in the sample were also determined using the external standard method, using the vasopressin reference standard peak area and a unit relative response factor. An impurities marker solution was used to determine the relative retention times of identified related peptides at the time of analysis.
# To test the effect of temperature on the stability of vasopressin formulation, solutions containing 20 units/mL vasopressin and chlorobutanol, adjusted to pH 3.5 with acetic acid, were prepared. One mL of each vasopressin formulations was then filled into 3 cc vials. Each Vasopressin Formulation was stored either inverted or upright for at least three months, up to 24 months, at: (i) 5° C.; (ii) 25° C. and 60% relative humidity; or (iii) 40° C. and 75% humidity, and the amount of vasopressin (U/mL) and % total impurities were measured periodically. TABLES 7-12 below display the results of the experiments at 5° C. The results of the experiments at 25° C. are included in TABLES 13-18. All of the experiments were performed in triplicate. The results of the experiments at 40° C. are included in TABLES 19-24. For each temperature tested, three lots of the vasopressin formulation were stored for 24 months (5° C. and 25° C.) and 3 months (40° C.), and measurements were taken at regular intervals during the testing periods. “NMT” as used in the tables denotes “not more than.”
# Experiments were also conducted on the same samples above over the course of the experiments to measure the amount of individual impurities in the samples, pH of the samples, chlorobutanol content, particulate matter, antimicrobial effectiveness, and bacterial endotoxin levels (TABLES 25-42). (NR=no reading; ND=not determined; UI=unidentified impurity).
# [1] = 25° C. and 60% Relative Humidity, 3 months, listed as AVP
# [2] = 25° C. and 60% Relative Humidity, 6 months, listed as AVP
# [3] = 25° C. and 60% Relative Humidity, 9 months, listed as AVP
# [4] = 25° C. and 60% Relative Humidity, 12 months, listed as AVP
# [5] = 25° C. and 60% Relative Humidity, 24 months, listed as AVP
# [6] = 25° C. and 60% Relative Humidity, Initial, listed as AVP
# [7] = 40° C. (75% humidity), 2 months
# [8] = 40° C. (75% humidity), 3 months
structure (smiles),measurement,setting,value
"NC(=O)CC[C@@H]1NC(=O)[C@H](Cc2ccccc2)NC(=O)[C@H](Cc2ccc(O)cc2)NC(=O)[C@@H](N)CSSC[C@@H](C(=O)N2CCC[C@H]2C(=O)N[C@@H](CCCN=C(N)N)C(=O)NCC(N)=O)NC(=O)[C@H](CC(N)=O)NC1=O [Vasopressin, Cyclo (1-6) L-Cysteinyl-L-Tyrosyl-L-Phenylalanyl-L-Glutaminyl-L-Asparaginyl-L-Cysteinyl-L-Prolyl-L-Arginyl-L-Glycinamide]",Related Substances: Acetyl-AVP,"5° C., Initial",0.3%
same,Related Substances: Asp5-AVP,"5° C., Initial",0.1%
same,Related Substances: SEQ ID NO.: 2,"5° C., Initial",0.5% and 0.6%
same,Related Substances: SEQ ID NO.: 4,"5° C., Initial",0.6% and 0.5%
same,Related Substances: SEQ ID NO.: 10,"5° C., Initial",0.3%
same,Related Substances: UI-0.75-0.78,"5° C., Initial",0.2%
same,Related Substances: UI-0.83-0.84,"5° C., Initial",0.1%
same,Related Substances: UI-1.02-1.03,"5° C., Initial",0.2%
same,Related Substances: UI-1.03,"5° C., Initial",0.2%
same,Related Substances: UI-1.85,"5° C., Initial",0.2%
same,Related Substances: UI-2.05,"5° C., Initial",0.1% and 0.2%
same,Vasopressin (AVP) Assay,"5° C., Initial",19.4 U/mL and 19.7 U/mL
same,Total Impurities,"5° C., Initial, listed as AVP",2.3% and 2.7% and 2.2%
same,Vasopressin (AVP) Assay,"5° C., Initial, listed as AVP",19.4 U/mL and 19.7 U/mL
same,AVP Assay,[1],19.4 U/mL and 19.7 U/mL and 19.6 U/mL
same,Total Impurities,[1],2.4% and 2.5% and 2.6%
same,AVP Assay,[2],19.1 U/mL and 19.3 U/mL and 19.2 U/mL
same,Total Impurities,[2],3.7% and 3.4% and 3.3%
same,AVP Assay,[3],18.8 U/mL and 19 U/mL
same,Total Impurities,[3],4.7% and 4.6%
same,AVP Assay,[4],18.3 U/mL and 18.6 U/mL and 18.7 U/mL
same,Total Impurities,[4],5.9% and 5.6%
same,Total Impurities,"25° C. and 60% Relative Humidity, 18 months",9.0%
same,AVP Assay,"25° C. and 60% Relative Humidity, 18 months, listed as AVP",17.5 U/mL and 17.6 U/mL and 18 U/mL
same,AVP Assay,[5],17.3 U/mL and 17.6 U/mL and 17.4 U/mL
same,Total Impurities,[5],13.6% and 13.4% and 12.9%
same,AVP Assay,[6],19.8 U/mL and 20.1 U/mL and 19.9 U/mL
same,Total Impurities,[6],1.1% and 1.3% and 1.5%
same,Total Impurities,"40° C. (75% humidity), 1 month",3.7% and 3.6%
same,Vasopressin Assay,"40° C. (75% humidity), 1 month",19.1 U/mL and 19.3 U/mL and 19.2 U/mL
same,Total Impurities,[7],7.3%
same,Vasopressin Assay,[7],18.6 U/mL and 18.7 U/mL and 18.3 U/mL
same,Total Impurities,[8],10.6% and 10.3%
same,Vasopressin Assay,[8],17.3 U/mL and 17.6 U/mL and 17.4 U/mL
same,Total Impurities,"40° C. (75% humidity), Initial",1.1% and 1.3%
same,Vasopressin Assay,"40° C. (75% humidity), Initial",19.8 U/mL and 20.1 U/mL and 19.9 U/mL
same,Related Substances: Acetyl-AVP,"40° C., 1 month",0.2%
same,Related Substances: Asp5-AVP,"40° C., 1 month",0.2%
same,Related Substances: D-Asn-AVP,"40° C., 1 month",0.4%
same,Related Substances: SEQ ID NO.: 2,"40° C., 1 month",1.0%
same,Related Substances: SEQ ID NO.: 4,"40° C., 1 month",1.1%
same,Related Substances: UI-0.13,"40° C., 1 month",0.1%
same,Related Substances: UI-1.02-1.03,"40° C., 1 month",0.3%
same,Related Substances: UI-1.56-1.57,"40° C., 1 month",0.2%
same,Related Substances: UI-1.93,"40° C., 1 month",0.1%
same,Related Substances: Acetyl-AVP,"40° C., 2 months",0.2%
same,Related Substances: Asp5-AVP,"40° C., 2 months",0.5%
same,Related Substances: D-Asn-AVP,"40° C., 2 months",0.3%
same,Related Substances: SEQ ID NO.: 2,"40° C., 2 months",2.4%
same,Related Substances: SEQ ID NO.: 4,"40° C., 2 months",2.7%
same,Related Substances: UI-1.02-1.03,"40° C., 2 months",0.2%
same,Related Substances: UI-1.56-1.57,"40° C., 2 months",0.4%
